One assay deals with P. aeroginosa. The note with it: cited from earlier work. An excerpt:
Table 1 Minimal inhibitory concentrations (MICs) of AMPs against selected bacteria, μg/mL. | column: From / P. aeroginosa

In assay [1] the test system is S. aureus. The conditions noted are these: cited from earlier work. An excerpt:
Table 1 Minimal inhibitory concentrations (MICs) of AMPs against selected bacteria, μg/mL. | column: From / S. aureus

The next assay relates to E. faecium. The note with it: cited from earlier work. An excerpt:
Table 1 Minimal inhibitory concentrations (MICs) of AMPs against selected bacteria, μg/mL. | column: From / E. faecium

In assay [2] the test system is Z. mobilis. The format is cell-based, Zymomonas mobilis. The protocol:
Z. mobilis strains, Zm6 (ATCC 29191), E. coli (ATCC 25404) and an S. aureus strain (DSM 20231) were subjected to screening for AMP resistance. Z. mobilis strains were routinely grown on the standard culture medium containing (per liter) 5 g of yeast extract, 1 g of KH2PO4, 1 g of (NH4) 2SO4, and 0.5 g of MgSO4·7H2O, supplemented with 40 mL of 50% glucose solution. E. coli was grown on LB medium, containing (per liter) 10 g of tryptone, 5 g of yeast extract, and 10 g of NaCl. S. aureus was grown on Mueller Hinton Broth, 21 g per 1 L, at 30 °C.
(§1) The quantification of antimicrobial resistance against various AMPs was conducted by monitoring the bacterial growth in the presence of peptides at serial dilutions. This assay was performed in 96-well plates using the Infinite® M200 PRO Multimode Microplate Reader from Tecan in Maennedorf, Switzerland, as described in our recent report. All bacterial strains were cultivated at 32 °C for 13–18 h at 200 rpm. Optical density measurements (λ = 550 nm) were automatically recorded at 10 min intervals. The antimicrobial resistance activity was quantified as the minimum inhibitory concentration (MIC), which represents the lowest peptide concentration capable of preventing the growth of bacterial cells.

Another assay has as its system E. Cancerogenus. The conditions noted are these: cited from earlier work. An excerpt:
Table 1 Minimal inhibitory concentrations (MICs) of AMPs against selected bacteria, μg/mL. | column: From / E. Cancerogenus

In the next assay the test system is K. pneumonia. The note with it: cited from earlier work. The text has this:
Table 1 Minimal inhibitory concentrations (MICs) of AMPs against selected bacteria, μg/mL. | column: From / K. pneumonia

Assay [3] has as its system E. coli. The note with it: cited from earlier work. The text has this: Table 1 Minimal inhibitory concentrations (MICs) of AMPs against selected bacteria, μg/mL. | column: From / E. coli
A further assay has as its system P. acne. The note with it: cited from earlier work. The text has this:
Table 1 Minimal inhibitory concentrations (MICs) of AMPs against selected bacteria, μg/mL. | column: From / P. acne

In assay [4] the test system is S. aureus. Kind of assay: Normalized inhibitory concentration (peptide molecules per cell). Type of assay: cell-based. The note with it: added AMP normalized to inoculum size, calculated with E. coli cell size parameters.
Source text: (§2) We noted, however, that there was a substantial difference between the specific cultivation conditions of Z. mobilis and the rest of the tested bacteria: Z. mobilis required a higher concentration of inoculum. A higher amount of biomass introduced at the start of cultivation might mitigate the antimicrobial effect of AMPs, since this decreases the number of peptide molecules available to penetrate the membrane of each individual cell. Indeed, it was shown that at least […] bound peptide molecules per bacterial cell are needed to kill it. […] For these experiments, we chose one Gram-positive and one Gram-negative model strain (S.aureus and E.coli, respectively) and two AMPs, RP556 and R10. […]
as §1, with “All bacterial strains were cultivated at 32 °C for 13–18 h at 200 rpm.” left out

The test system of assay [5] is Z. mobilis. The assay is described as above. Type of assay: cell-based, Zymomonas mobilis. The note with it: added AMP normalized to inoculum size, calculated with E. coli cell size parameters.
Source text: as §2
as §1, with “All bacterial strains were cultivated at 32 °C for 13–18 h at 200 rpm.” left out

The test system of assay [6] is E. coli. The assay is described as above. The format is cell-based, Escherichia coli. The note with it: added AMP normalized to inoculum size, calculated with E. coli cell size parameters.
Source text: as §2
as §1, with “All bacterial strains were cultivated at 32 °C for 13–18 h at 200 rpm.” left out

≈ marks a conversion by molar mass, not a printed value. Where a SMILES comes first, the peptide text is derived from it. Where no end group is shown, it is not given here.

IAKKFWPKFWKFWKIFKKIA [R13]: the MIC is 4.0 µg/mL in the assay with P. aeroginosa; 4.0 µg/mL in the assay with S. aureus [1]; 16.0 µg/mL in the assay on E. faecium; 63.0 µg/mL against Z. mobilis [2]; 31.0 µg/mL in the assay with E. Cancerogenus; 8.0 µg/mL in the assay with K. pneumonia. Further, the MIC in the assay with E. coli [3] was 4.0 µg/mL; with P. acne it was 0.3 µg/mL.

Turning to FAKALKALLKALKAL [Oligo10], the MIC is 63.0 µg/mL in the assay on P. aeroginosa; 4.0 µg/mL in the assay on S. aureus [1]; 16.0 µg/mL with E. faecium; 31.0 µg/mL with Z. mobilis [2]; 63.0 µg/mL with E. Cancerogenus; 63.0 µg/mL in the assay with K. pneumonia. Moreover, the MIC is 16.0 µg/mL in the assay with E. coli [3] and 2.0 µg/mL with P. acne.

As to `CC(C)[C@H](NC(=O)[C@H](Cc1ccc(O)cc1)NC(=O)[C@H](Cc1c[nH]c2ccccc12)NC(=O)[C@H](CS)NC(=O)[C@H](Cc1ccccc1)NC(=O)CN)C(=O)N[C@@H](CS)C(=O)N[C@@H](C)C(=O)N[C@@H](CCCNC(=N)N)C(=O)N[C@@H](CCCNC(=N)N)C(=O)N[C@@H](CC(N)=O)C(=O)NCC(=O)N[C@@H](C)C(=O)N[C@@H](CCCNC(=N)N)C(=O)N[C@H](C(=O)N[C@@H](CS)C(=O)N[C@@H](Cc1ccc(O)cc1)C(=O)N[C@@H](CCCNC(=N)N)C(=O)N[C@@H](CCCNC(=N)N)C(=O)N[C@@H](CS)C(=O)N[C@@H](CC(N)=O)C(=O)O)C(C)C` [AA139] (H-GFCWYVCARRNGARVCYRRCN-OH; N-terminus and C-terminus assumed), the MIC with P. aeroginosa was 16.0 µg/mL (≈ 6.26 µM); in the assay with S. aureus [1] it was 8.0 µg/mL (≈ 3.13 µM); in the assay on E. faecium, 16.0 µg/mL (≈ 6.26 µM); in the assay with Z. mobilis [2], 250.0 µg/mL (≈ 97.9 µM); in the assay on E. Cancerogenus it was 8.0 µg/mL (≈ 3.13 µM); in the assay with K. pneumonia it was 8.0 µg/mL (≈ 3.13 µM). Moreover, the values for the MIC with E. coli [3] and in the assay with P. acne were 4.0 µg/mL (≈ 1.57 µM) and 63.0 µg/mL (≈ 24.7 µM), respectively.

For `CC(C)C[C@H](NC(=O)[C@H](CS)NC(=O)[C@H](Cc1ccccc1)NC(=O)[C@@H](N)CCCCN)C(=O)N[C@@H](CCCCN)C(=O)N[C@@H](Cc1ccccc1)C(=O)N[C@@H](CS)C(=O)N[C@@H](Cc1ccccc1)C(=O)N[C@@H](CCCCN)C(=O)NCC(=O)N[C@@H](Cc1ccccc1)C(=O)N[C@@H](CS)C(=O)N[C@@H](Cc1ccccc1)C(=O)N[C@@H](CCCCN)C(=O)N[C@@H](C)C(=O)N[C@@H](CS)C(=O)NCC(=O)N[C@@H](CCCCN)C(=O)O` [R11] (H-KFCLKFCFKGFCFKACGK-OH; N-terminus and C-terminus assumed), the MIC is 63.0 µg/mL (≈ 29.9 µM) in the assay with P. aeroginosa; 16.0 µg/mL (≈ 7.6 µM) with S. aureus [1]; 16.0 µg/mL (≈ 7.6 µM) in the assay with E. faecium; 250.0 µg/mL (≈ 119 µM) in the assay with Z. mobilis [2]; 63.0 µg/mL (≈ 29.9 µM) in the assay on E. Cancerogenus; 63.0 µg/mL (≈ 29.9 µM) in the assay on K. pneumonia. In addition, the results for the MIC in the assay on E. coli [3] and with P. acne were 125.0 µg/mL (≈ 59.4 µM) and 0.3 µg/mL (≈ 0.142 µM), respectively.

In the case of KKIAKKFWKKFWKFWKIFKK [R10], the values for the Normalized inhibitory concentration with S. aureus [4], in the assay on Z. mobilis [5] and with E. coli [6] were 1.98 × 10^8 peptide molecules per cell, 6.58 × 10^9 peptide molecules per cell and 2.30 × 10^7 peptide molecules per cell, respectively. The MIC is 2.0 µg/mL with P. aeroginosa; 4.0 µg/mL in the assay on S. aureus [1]; 4.0 µg/mL in the assay with E. faecium; 31.0 µg/mL in the assay with Z. mobilis [2]; 16.0 µg/mL in the assay on E. Cancerogenus; 8.0 µg/mL in the assay on K. pneumonia. Further, the MIC in the assay with E. coli [3] was 2.0 µg/mL; with P. acne it was 0.5 µg/mL.

For the compound IAKKFWKKFWKFWKIFKKIA [R12], the MIC in the assay with P. aeroginosa is 4.0 µg/mL; in the assay on S. aureus [1] it was 8.0 µg/mL; in the assay with E. faecium, 16.0 µg/mL; in the assay with Z. mobilis [2], 63.0 µg/mL; in the assay with E. Cancerogenus, 31.0 µg/mL; with K. pneumonia, 31.0 µg/mL. Also, the MIC with E. coli [3] is 8.0 µg/mL; in the assay with P. acne, 0.5 µg/mL.

Turning to VKRWKKWWRKWKKWV [LZ1], the MIC in the assay on P. aeroginosa is 8.0 µg/mL; with S. aureus [1] it was 2.0 µg/mL; in the assay with E. faecium, 4.0 µg/mL; with E. Cancerogenus, 16.0 µg/mL; in the assay with K. pneumonia, 16.0 µg/mL; in the assay on E. coli [3], 31.0 µg/mL. Moreover, the MIC in the assay with P. acne was 8.0 µg/mL.

Take KIAKRIWKRIWKILRRR [PA13]: the MIC in the assay on P. aeroginosa is 16.0 µg/mL; in the assay with S. aureus [1], 2.0 µg/mL; in the assay with E. faecium it was 4.0 µg/mL; with Z. mobilis [2], 63.0 µg/mL; with E. Cancerogenus, 16.0 µg/mL; in the assay on K. pneumonia it was 16.0 µg/mL. The MIC was 31.0 µg/mL in the assay with E. coli [3] and 16.0 µg/mL in the assay with P. acne.

Consider KKIAKKFWKKFWKFWPKFWKIFKK [R14], for which the MIC in the assay with P. aeroginosa is 4.0 µg/mL; in the assay with S. aureus [1], 8.0 µg/mL; in the assay on E. faecium, 8.0 µg/mL; in the assay on Z. mobilis [2], 63.0 µg/mL; in the assay on E. Cancerogenus, 16.0 µg/mL; in the assay on K. pneumonia, 4.0 µg/mL. Besides, the MIC is 16.0 µg/mL with E. coli [3] and 1.0 µg/mL in the assay with P. acne.

`CC[C@H](C)[C@H](NC(=O)CNC(=O)[C@H](CCCCN)NC(=O)[C@H](Cc1ccc(O)cc1)NC(=O)[C@H](CS)NC(=O)[C@@H](NC(=O)[C@H](CCCCN)NC(=O)[C@H](Cc1ccccc1)NC(=O)[C@H](CS)NC(=O)[C@H](Cc1c[nH]c2ccccc12)NC(=O)[C@@H](N)CCCNC(=N)N)C(C)C)C(=O)N[C@@H](CS)C(=O)N[C@@H](Cc1ccc(O)cc1)C(=O)N[C@@H](CCCCN)C(=O)N[C@@H](CCCCN)C(=O)N[C@@H](CS)C(=O)N[C@@H](CCCCN)C(=O)O` [RP556] (H-RWCFKVCYKGICYKKCK-OH; N-terminus and C-terminus assumed): the values for the Normalized inhibitory concentration in the assay on S. aureus [4], in the assay with Z. mobilis [5] and in the assay with E. coli [6] were 2.43 × 10^7 peptide molecules per cell, 1.68 × 10^10 peptide molecules per cell and 2.93 × 10^7 peptide molecules per cell, respectively. The MIC with P. aeroginosa is 2.0 µg/mL (≈ 0.927 µM); in the assay with S. aureus [1], 1.0 µg/mL (≈ 0.464 µM); with E. faecium, 2.0 µg/mL (≈ 0.927 µM); in the assay on E. Cancerogenus, 4.0 µg/mL (≈ 1.85 µM); with K. pneumonia it was 4.0 µg/mL (≈ 1.85 µM); with E. coli [3], 4.0 µg/mL (≈ 1.85 µM). Further, the MIC in the assay on P. acne was 2.0 µg/mL (≈ 0.927 µM).

The values are drawn from paper PMC11118514, “Eminent Antimicrobial Peptide Resistance in Zymomonas mobilis: A Novel Advantage of Intrinsically Uncoupled Energetics” (Antibiotics, 2024).
